pIC50: −log10 of the molar value.
Test system: 876862-298-R-J1-PDC complex spheroids, viability % test/control
Assay: Anticancer human tumor 876862-298-R-J1-PDC patient-derived endometrial carcinoma cell line growth inhibition [CLK]
Conditions: for pIC50: curve of first compound; for viability, T/C: stronger effect = lower value
Summary of the method: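 Multi-cell-type spheroids combined patient-derived tumor cells with HUVEC endothelial cells and human mesenchymal stem cells. Paired agents were dosed in half-log steps down from about clinical Cmax, or from 10 microM where Cmax was unknown.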

[1] = second compound 0.0316 µM, first compound 0.0316 µM
[2] = second compound 0.0316 µM, first compound 0.1 µM
[3] = second compound 0.0316 µM, first compound 0.316 µM
[4] = second compound 0.0316 µM, first compound 1 µM
[5] = second compound 0.0316 µM, first compound 3.16 µM
[6] = second compound 0.0316 µM, first compound 10 µM
[7] = second compound 0.1 µM, first compound 0.0316 µM
[8] = second compound 0.1 µM, first compound 0.1 µM
[9] = second compound 0.1 µM, first compound 0.316 µM
[10] = second compound 0.1 µM, first compound 1 µM
[11] = second compound 0.1 µM, first compound 3.16 µM
[12] = second compound 0.1 µM, first compound 10 µM
[13] = second compound 0.316 µM, first compound 0.0316 µM
[14] = second compound 0.316 µM, first compound 0.1 µM
[15] = second compound 0.316 µM, first compound 0.316 µM
[16] = second compound 0.316 µM, first compound 1 µM
[17] = second compound 0.316 µM, first compound 3.16 µM
[18] = second compound 0.316 µM, first compound 10 µM
[19] = second compound 1 µM, first compound 0.0316 µM
[20] = second compound 1 µM, first compound 0.1 µM
[21] = second compound 1 µM, first compound 0.316 µM
[22] = second compound 1 µM, first compound 1 µM
[23] = second compound 1 µM, first compound 3.16 µM
[24] = second compound 1 µM, first compound 10 µM
[25] = second compound 3.16 µM, first compound 0.0316 µM
[26] = second compound 3.16 µM, first compound 0.1 µM
[27] = second compound 3.16 µM, first compound 0.316 µM
[28] = second compound 3.16 µM, first compound 1 µM
[29] = second compound 3.16 µM, first compound 3.16 µM
[30] = second compound 3.16 µM, first compound 10 µM
[31] = second compound 10 µM, first compound 0.0316 µM
[32] = second compound 10 µM, first compound 0.1 µM
[33] = second compound 10 µM, first compound 0.316 µM
[34] = second compound 10 µM, first compound 1 µM
[35] = second compound 10 µM, first compound 3.16 µM
[36] = second compound 10 µM, first compound 10 µM
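Note: spheroids exposed to drugs for 7 days before readout.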
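Throughout, for viability, T/C: 100% = DMSO vehicle control wells.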

COc1ccc([C@@H](O)c2cc(-c3ncnc4cc(N5CCOCC5)ccc34)c(F)cc2Cl)nn1 + CNC(=O)c1ccc(Nc2nc(OC3CCCC3)c3c(-c4ccc5nc(C)oc5c4)c[nH]c3n2)c(OC)c1 showed a pIC50 (second compound 0.0316 µM) of 5.52, a pIC50 (second compound 0.1 µM) of 7.09 and a pIC50 (second compound 0.316 µM) of over 7.50. The pIC50 (second compound 1 µM) was over 7.50, the pIC50 (second compound 3.16 µM) was over 7.50 and the pIC50 (second compound 10 µM) was over 7.50. For the same compound, the viability, T/C [1] was 72%, the viability, T/C [2] was 84.4% and the viability, T/C [3] was 69.5%. It also gave a viability, T/C [4] of 66.1%, a viability, T/C [5] of 49.4% and a viability, T/C [6] of 30.5%. The viability, T/C [7] was 50.6%, the viability, T/C [8] was 49.3% and the viability, T/C [9] was 48.7%. The viability, T/C [10] was 38.8%, the viability, T/C [11] was 34% and the viability, T/C [12] was 26.8%. For the same compound, the viability, T/C [13] was 47%, the viability, T/C [14] was 39.7% and the viability, T/C [15] was 47.7%. The viability, T/C [16] was 33.2%, the viability, T/C [17] was 27.1% and the viability, T/C [18] was 21.6%. For the same compound, the viability, T/C [19] was 31.9%, the viability, T/C [20] was 28.8% and the viability, T/C [21] was 30.4%. It also gave a viability, T/C [22] of 26.8%, a viability, T/C [23] of 21.1% and a viability, T/C [24] of 15.5%. The viability, T/C [25] was 25%, the viability, T/C [26] was 21.2% and the viability, T/C [27] was 18.5%. For the same compound, the viability, T/C [28] was 20.3%, the viability, T/C [29] was 17.2% and the viability, T/C [30] was 11.9%. The viability, T/C [31] was 23.2%, the viability, T/C [32] was 19.2% and the viability, T/C [33] was 17.9%. It also gave a viability, T/C [34] of 16.3%, a viability, T/C [35] of 17% and a viability, T/C [36] of 10.2%.

With C=CC(=O)N1CCN(c2nc(=O)n(-c3c(C)ccnc3C(C)C)c3nc(-c4c(O)cccc4F)c(F)cc23)C(C)C1 (centres undefined) + CNC(=O)c1ccc(Nc2nc(OC3CCCC3)c3c(-c4ccc5nc(C)oc5c4)c[nH]c3n2)c(OC)c1 the pIC50 (second compound 0.0316 µM) was under 5.00, the pIC50 (second compound 0.1 µM) was 6.49 and the pIC50 (second compound 0.316 µM) was over 7.50. For the same compound, the pIC50 (second compound 1 µM) was over 7.50, the pIC50 (second compound 3.16 µM) was over 7.50 and the pIC50 (second compound 10 µM) was over 7.50. For the same compound, the viability, T/C [1] was 70.2%, the viability, T/C [2] was 84.2% and the viability, T/C [3] was 69%. The viability, T/C [4] was 90.2%, the viability, T/C [5] was 80.9% and the viability, T/C [6] was 60.5%. For the same compound, the viability, T/C [7] was 52.4%, the viability, T/C [8] was 54.5% and the viability, T/C [9] was 46%. It also gave a viability, T/C [10] of 46.9%, a viability, T/C [11] of 50.2% and a viability, T/C [12] of 41%. For the same compound, the viability, T/C [13] was 42.7%, the viability, T/C [14] was 43.5% and the viability, T/C [15] was 42.2%. It also gave a viability, T/C [16] of 39.6%, a viability, T/C [17] of 46.1% and a viability, T/C [18] of 35.2%. For the same compound, the viability, T/C [19] was 32.4%, the viability, T/C [20] was 29.6% and the viability, T/C [21] was 30.1%. For the same compound, the viability, T/C [22] was 29.3%, the viability, T/C [23] was 29.3% and the viability, T/C [24] was 23.3%. The viability, T/C [25] was 24%, the viability, T/C [26] was 25.2% and the viability, T/C [27] was 23.1%. The viability, T/C [28] was 21.6%, the viability, T/C [29] was 23.5% and the viability, T/C [30] was 13.6%. The viability, T/C [31] was 24.6%, the viability, T/C [32] was 19.5% and the viability, T/C [33] was 19.1%. For the same compound, the viability, T/C [34] was 22.7%, the viability, T/C [35] was 20.1% and the viability, T/C [36] was 10.2%.
